Assays:
flowing plasma = experiment: Clotting and occlusion of plasma flowing through a glass capillary tube; assay type: biochemical
Protocol: To show propelling thrombin particles clotting flowing plasma, particles were applied to the bottom of plasma flowing through a glass capillary tube (FIG. 3D,E). A microfluidic system was used to control the flow of plasma, and monitor the flow to determine when clotting occluded flow in the capillary tube. At flow velocities between 0.006 and 3.4 mm/s, the background occlusion times in the system were approximately 30 min. […] At high flows, the clot was easily pushed out and the flow of plasma resumed. […] The particles propelled upwards, against flow, and accumulated high within the tubing. Clotting was seen to initiate at regions with the highest concentration of particles.

[1] = test system: platelet-poor blood plasma; experiment: Clot initiation in a 25 mm column of non-flowing platelet-poor blood plasma; assay type: biochemical
Protocol: Thr-CaCO3 was mixed at a 1:1 mass ratio with TXA-NH3^+ to yield a propelling particle mixture. A non-propelling mixture consisted of a 1:1 ratio of Thr-CaCO3 with lyophilized TXA-NH2. The ability of the two mixtures to initiate clotting in platelet-poor blood plasma was measured and compared against addition of a similar amount of thrombin (approximately 1 pmol) in HEPES buffer and a control receiving no treatment.
The ability of particles to clot both at the site of application and below the site was assessed by injecting particles near the top of a column of plasma that was 25 mm tall. Initiation of clotting was measured both at the top and the bottom of the column by monitoring the formation of fibrin. The blood plasma was laced with green-fluorescent beads in order to monitor movement and formation of solid fibrin mesh and clot initiation. Clotting at the top was measured visually, and when the plasma became opaque or appeared gelled, clotting was confirmed by gentle manipulation with a micropipette.
Both propelling and non-propelling particles immediately clotted plasma at the top of the column, which was detected within 2 min. The same response occurred when a solution containing an equivalent amount of dissolved thrombin was added. However, there were much larger differences in the clot times at the bottom of the columns of plasma between these samples.
Clotting took about 30 min, as the clot needed to propagate down through the column by diffusion. Clotting at the bottom was faster using non-propelled particles, occurring in 3.7 min as compared to 10 min for the propelled particles. […] Most propelled particles reacted and produced gas at the top so only a fraction of the particles sank to the bottom yielding a slightly slower clot time compared to non-propelling particles. Although the propelled particles out-performed the thrombin solution in this assay, a particular advantage for the propelling particles would come from an ability to propel though flowing solutions.

thrombin [thrombin solution]
flow velocity up to which occlusion occurred (flowing plasma): up to 0.06 mm/s
occlusion versus controls at 0.6 mm/s (flowing plasma; flow velocity 0.6 mm/s): no difference from controls
acceleration of clot initiation at the bottom compared to the control ([1]; bottom of 25 mm column): no acceleration of clot initiation
clot time at the bottom of the column ([1]; bottom of 25 mm column, non-flowing plasma): about 30 min
clot time at the top of the column ([1]; site of application, non-flowing plasma): same response

Reference: patent US12226520B2, “Self-fueled particles for propulsion through flowing aqueous fluids” (The University of British Columbia, priority 2013, dated 2025)
